Publication PMC12179616, “Novel and efficient synthesis of 5-chloro-6-methoxy-3-(2-((1-(aryl)-1H-1,2,3-triazol-4-yl)methoxy)ethyl)benzo[d]isoxazole derivatives as new α-glucosidase inhibitors” (Biochemistry and Biophysics Reports, 2025)
Values joined by “and” are separate entries in the source; they are usually repeats but may differ in a detail not shown here. Equal values may be shown once.

What was measured:
[1] = system: Bacillus cereus (MTCC2128); assay: Antibacterial activity, agar well diffusion; type: cell-based; conditions: for zone of inhibition / inhibition in words: 25 μl
Procedure: (§1) The antibacterial activity was determined by using the agar well diffusion method [[50], [51], [52]]. Two bacterial strains were used to evaluate the antibacterial efficacy of the synthesized compounds: one Gram-positive strain, Bacillus cereus (MTCC2128), and one Gram-negative strain, Escherichia coli (MTCC2412). Sterilized Mueller Hinton Broth (MHB) was used to cultivate the bacterial strains, and the mixture was incubated for 18 h at 37 °C. To evaluate the antibacterial activity, the inhibition zone (RIZ) radius encircled each well was determined in millimeters. The experiments were carried out duplicates. The incubation period for the plates was from 72 to 96 h at a temperature of 37 °C. The zone of inhibition was then looked for on the plates.

[2] = system: Escherichia coli (MTCC2412); assay: Antibacterial activity, agar well diffusion; type: cell-based
Procedure: as §1

α-glucosidase = conditions: Fig. 1; cited from earlier work

COc1cc2onc(CCOCc3cn(-c4cccc(Cl)c4)nn3)c2cc1Cl [Compound 9c, 5-Chloro-3-(2-((1-(3-chlorophenyl)-1H-1,2,3-triazol-4-yl)methoxy)ethyl)-6-methoxybenzo[d]isoxazole]
zone of inhibition [1]: 0.4 mm

COc1cc2onc(CCOCc3cn(-c4ccccc4C)nn3)c2cc1Cl [Compound 9f, 5-Chloro-6-methoxy-3-(2-((1-(o-tolyl)-1H-1,2,3-triazol-4-yl)methoxy)ethyl)benzo[d] isoxazole]
antibacterial activity in words [1]: showed antibacterial activity | zone of inhibition [1]: 0.5 mm

COc1cc2onc(CCOCc3cn(-c4ccccc4OC)nn3)c2cc1Cl [Compound 9g, 5-Chloro-6-methoxy-3-(2-((1-(2-methoxyphenyl)-1H-1,2,3-triazol-4-yl)methoxy)ethyl) benzo[d]isoxazole]
zone of inhibition ([2]; 75 μl): 0.9 mm | zone of inhibition ([2]; 100 μl): 1.2 mm

COc1ccc(-n2cc(COCCc3noc4cc(OC)c(Cl)cc34)nn2)cc1 [Compound 9h, 5-Chloro-6-methoxy-3-(2-((1-(4-methoxyphenyl)-1H-1,2,3-triazol-4-yl)methoxy)ethyl) benzo[d]isoxazole]
antibacterial activity in words [1]: showed antibacterial activity | zone of inhibition [1]: 0.5 mm

COc1cc2onc(CCOCc3cn(-c4ccc(Br)c(F)c4)nn3)c2cc1Cl [Compound 9i, 3-(2-((1-(4-Bromo-3-fluorophenyl)-1H-1,2,3-triazol-4-yl)methoxy)ethyl)-5-chloro-6-methoxybenzo[d]isoxazole]
inhibition in words [1]: moderate inhibition

COc1cc2onc(CCOCc3cn(-c4ccc(F)cc4)nn3)c2cc1Cl [Compound 9j, 5-Chloro-3-(2-((1-(4-fluorophenyl)-1H-1,2,3-triazol-4-yl)methoxy)ethyl)-6-methoxy benzo[d]isoxazole]
inhibition in words [1]: moderate inhibition

COc1cc2onc(CCOCc3cn(-c4ccccc4C(F)(F)F)nn3)c2cc1Cl [Compound 9k, 5-Chloro-6-methoxy-3-(2-((1-(2-(trifluoromethyl)phenyl)-1H-1,2,3-triazol-4-yl)methoxy)ethyl)benzo[d]isoxazole]
inhibition in words [1]: moderate inhibition

COc1cc2onc(CCOCc3cn(-c4ccc(C(F)(F)F)cc4)nn3)c2cc1Cl [Compound 9l, 5-chloro-6-methoxy-3-(2-((1-(4-(trifluoromethyl)phenyl)-1H-1,2,3-triazol-4-yl)methoxy)ethyl)benzo[d]isoxazole]
antibacterial activity in words [1]: showed antibacterial activity | zone of inhibition [1]: 0.5 mm and 0.4 mm

COc1cc2onc(CCOCc3cn(-c4ccc(C)c(C)c4)nn3)c2cc1Cl [Compound 9m, 5-Chloro-3-(2-((1-(3,4-dimethylphenyl)-1H-1,2,3-triazol-4-yl)methoxy)ethyl)-6-methoxy benzo[d]isoxazole]
inhibition in words [1]: moderate inhibition

COc1cc2onc(CCOCc3cn(-c4ccc(Br)cc4)nn3)c2cc1Cl [Compound 9n, 3-(2-((1-(4-Bromophenyl)-1H-1,2,3-triazol-4-yl)methoxy)ethyl)-5-chloro-6-methoxy benzo[d]isoxazole]
inhibition in words [1]: moderate inhibition

COc1cc2onc(CCOCc3cn(-c4ccc(Br)c(C(F)(F)F)c4)nn3)c2cc1Cl [Compound 9o, 3-(2-((1-(4-Bromo-3-(trifluoromethyl)phenyl)-1H-1,2,3-triazol-4-yl)methoxy)ethyl)-5-chloro-6-methoxybenzo[d]isoxazole]
inhibition in words [1]: moderate inhibition

O=C1Nc2ccccc2/C1=N/N=C/c1ccc(OCc2cn(Cc3ccccc3F)nn2)cc1 [III]
IC50 (α-glucosidase): 16.4 µM

O=c1oc2ccccc2c(O)c1C(c1ccc(OCc2cn(-c3ccccc3Cl)nn2)cc1)c1c(O)c2ccccc2oc1=O [I]
IC50 (α-glucosidase): 13 µM
